Values quoted from earlier work as cited in patent US20130281394A1, “Chemosensory Receptor Ligand-Based Therapies” (ELCELYX THERAPEUTICS, INC., priority 2010, published 2013).
Read-outs that look alike come from different tables or passages of the source. Each block holds one molecule with its values, some of them ahead of it.

Tests used:
[1] = tested on: bitter receptor
[2] = molecular target: T1, sweet receptor (Homo sapiens, UniProt Q7RTX0+Q8TE23); details: relative sweetness on a weight comparison basis to sucrose (= 1.0); ranges: varied with the concentration of sucrose
T1 sequence (Q8TE23 20-839): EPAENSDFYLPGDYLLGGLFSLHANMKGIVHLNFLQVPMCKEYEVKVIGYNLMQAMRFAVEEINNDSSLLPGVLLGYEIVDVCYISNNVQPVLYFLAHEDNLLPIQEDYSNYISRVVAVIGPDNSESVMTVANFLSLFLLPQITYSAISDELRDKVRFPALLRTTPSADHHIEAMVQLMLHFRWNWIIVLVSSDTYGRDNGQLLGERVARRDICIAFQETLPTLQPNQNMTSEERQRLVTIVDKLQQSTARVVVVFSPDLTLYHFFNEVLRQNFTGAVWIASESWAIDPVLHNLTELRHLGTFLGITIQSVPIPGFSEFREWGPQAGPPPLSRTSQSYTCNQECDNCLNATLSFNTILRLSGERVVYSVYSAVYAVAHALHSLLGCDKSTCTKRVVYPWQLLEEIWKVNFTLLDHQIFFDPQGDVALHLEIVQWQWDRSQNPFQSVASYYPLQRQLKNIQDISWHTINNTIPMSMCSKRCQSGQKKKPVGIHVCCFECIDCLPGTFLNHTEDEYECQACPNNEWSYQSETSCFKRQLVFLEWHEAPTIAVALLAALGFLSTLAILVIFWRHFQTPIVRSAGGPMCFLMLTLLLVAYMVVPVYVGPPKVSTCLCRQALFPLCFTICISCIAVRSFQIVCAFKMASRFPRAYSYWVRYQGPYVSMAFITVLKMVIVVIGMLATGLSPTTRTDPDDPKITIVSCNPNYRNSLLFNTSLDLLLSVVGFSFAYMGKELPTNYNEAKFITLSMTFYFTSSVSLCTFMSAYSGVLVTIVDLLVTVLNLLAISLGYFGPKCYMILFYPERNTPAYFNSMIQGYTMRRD
T1 sequence (Q7RTX0 21-852): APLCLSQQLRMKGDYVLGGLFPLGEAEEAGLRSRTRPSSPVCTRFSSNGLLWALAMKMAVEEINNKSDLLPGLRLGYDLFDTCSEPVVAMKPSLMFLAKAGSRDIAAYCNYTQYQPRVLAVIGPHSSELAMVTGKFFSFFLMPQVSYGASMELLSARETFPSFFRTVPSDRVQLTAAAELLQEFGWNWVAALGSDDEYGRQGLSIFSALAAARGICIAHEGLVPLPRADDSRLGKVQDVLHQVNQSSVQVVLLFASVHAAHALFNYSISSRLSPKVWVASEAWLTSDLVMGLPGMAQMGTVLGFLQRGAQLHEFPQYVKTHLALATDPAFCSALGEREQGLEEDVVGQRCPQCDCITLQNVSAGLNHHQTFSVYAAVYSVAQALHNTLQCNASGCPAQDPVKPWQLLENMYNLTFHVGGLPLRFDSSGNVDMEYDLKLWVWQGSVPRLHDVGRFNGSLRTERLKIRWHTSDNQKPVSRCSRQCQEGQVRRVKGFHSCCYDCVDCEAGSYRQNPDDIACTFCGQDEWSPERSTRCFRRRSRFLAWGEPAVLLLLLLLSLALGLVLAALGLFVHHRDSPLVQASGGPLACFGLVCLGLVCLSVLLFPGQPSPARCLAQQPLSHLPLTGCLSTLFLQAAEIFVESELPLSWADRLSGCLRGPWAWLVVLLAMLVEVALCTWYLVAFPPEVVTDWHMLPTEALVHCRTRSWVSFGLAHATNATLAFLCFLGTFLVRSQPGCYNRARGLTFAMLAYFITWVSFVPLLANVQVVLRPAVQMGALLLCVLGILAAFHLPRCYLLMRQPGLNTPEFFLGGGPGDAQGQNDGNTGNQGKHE

[3] = tested on: gut hormones; details: humans
[4] = rats
[5] = tested on: GLP-1; details: rats, with a DPP-IV inhibitor
[6] = tested on: GLP-1; details: humans
[7] = tested on: gut hormone release; details: rats
[8] = tested on: gut hormone release; details: instillation into the duodenum of humans
[9] = patients with jejunostomy
[10] = in vivo

Molecule: CC(=O)O[C@H]1CC(=O)OC(C)(C)[C@@H]2CC(=O)[C@]3(C)[C@H](CC[C@@]4(C)[C@H](c5ccoc5)OC(=O)[C@H]5O[C@]543)[C@@]12C [Nomilin]
Taste quality [1]: Bitter

Molecule: C=C1C[C@@]23CC[C@H]4[C@@](C)(CCC[C@@]4(C)C(=O)O[C@@H]4O[C@H](CO)[C@@H](O)[C@H](O)[C@H]4O)[C@@H]2CC[C@]1(O[C@@H]1O[C@H](CO)[C@@H](O)[C@H](O[C@@H]2O[C@H](CO)[C@@H](O)[C@H](O)[C@H]2O)[C@H]1O[C@@H]1O[C@H](CO)[C@@H](O)[C@H](O)[C@H]1O)C3 [Rebaudioside A]
Sweetness/potency [2]: 242
alterations of gut hormones in the circulation [3]: no alterations

Molecule: N[C@@H](CCC(=O)O)C(=O)O [glutamate]
abdominal fat [4]: reduced
weight gain [4]: decreased

Molecule: OCCN1C[C@H](O)[C@@H](O)[C@H](O)[C@H]1CO [miglitol]
increase in GLP-1 [5]: synergistic
post-prandial GLP-1 levels [6]: increase

Molecule: OC[C@H]1O[C@H](O[C@]2(CCl)O[C@H](CCl)[C@@H](O)[C@@H]2O)[C@H](O)[C@@H](O)[C@H]1Cl [sucralose]
gut hormone release [7]: no effect
gut hormone release [8]: no effect

Molecule: GLP-2: gut hormone administered to patients with jejunostomy (HADGSFSDEMNTILDNLAARDFINWLIQTKITD; Glucagon-like peptide 2; UniProt P01275 146-178, looked up)
gastric emptying of solids and liquids [9]: prolong
intestinal absorption of energy and intestinal wet weight absorption [9]: improve

Molecule: glucagon-like peptide-1 [GLP-1]
portal:arterial gradient [10]: > 2:1

More lines, now with the values ahead:

Taste quality [1]: Bitter
Molecule: C[C@@H]1O[C@@H](O[C@H]2[C@H](Oc3cc(O)c4c(c3)O[C@H](c3ccc(O)cc3)CC4=O)O[C@H](CO)[C@@H](O)[C@@H]2O)[C@H](O)[C@H](O)[C@H]1O [Naringin]

Taste quality [1]: Bitter
Molecule: COc1ccc(-c2cc(=O)c3c(OC)c(OC)c(OC)c(OC)c3o2)cc1OC [Nobiletin]

Taste quality [1]: Bitter
Molecule: C=C[C@H](O)CC(=NOS(=O)(=O)O)S[C@@H]1O[C@H](CO)[C@@H](O)[C@H](O)[C@H]1O [Progoitrin]

Taste quality [1]: Bitter
Molecule: O=c1c(O)c(-c2ccc(O)c(O)c2)oc2cc(O)cc(O)c12 [Quercetin]

Taste quality [1]: Bitter
Molecule: COc1ccc(-c2cc(=O)c3c(OC)c(OC)c(OC)cc3o2)cc1OC [Sinensetin]

Taste quality [1]: Bitter
Molecule: COc1ccc(-c2cc(=O)c3c(OC)c(OC)c(OC)c(OC)c3o2)cc1 [Tangeretin]

Taste quality [1]: Bitter or astringent
Molecule: O=c1c(-c2ccc(O)cc2)coc2cc(O)ccc12 [daidzein]
